Assay results published in US20220280530A1, “PREVENTION OR TREATMENT OF DISEASES AND DISORDERS ASSOCIATED WITH TISSUE DAMAGE” (priority 2019, published 2022).
Where two headings read alike, the source gives them in different places.

Columns and labels:
MST1 = MST1 (Homo sapiens, UniProt Q13043); experiment: MST1 protein kinase inhibition (Table 5); format: biochemical
MST2 = molecular target: T1, MST2 (Homo sapiens, UniProt Q13188); experiment: MST2 protein kinase inhibition (Table 5); format: biochemical
T1 sequence (Q13188 1-491): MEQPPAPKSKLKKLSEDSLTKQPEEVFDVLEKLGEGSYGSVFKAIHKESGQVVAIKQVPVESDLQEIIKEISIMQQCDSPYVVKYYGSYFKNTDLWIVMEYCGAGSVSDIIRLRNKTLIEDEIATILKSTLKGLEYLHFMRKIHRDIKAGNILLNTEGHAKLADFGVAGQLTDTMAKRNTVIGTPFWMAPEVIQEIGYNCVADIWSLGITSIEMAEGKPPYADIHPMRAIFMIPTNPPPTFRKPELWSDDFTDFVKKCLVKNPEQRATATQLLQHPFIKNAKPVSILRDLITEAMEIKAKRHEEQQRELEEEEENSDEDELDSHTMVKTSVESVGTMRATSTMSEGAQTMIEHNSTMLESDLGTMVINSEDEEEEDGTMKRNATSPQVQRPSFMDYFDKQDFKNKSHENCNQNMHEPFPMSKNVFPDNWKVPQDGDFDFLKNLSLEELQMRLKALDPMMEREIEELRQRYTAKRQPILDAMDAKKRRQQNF

mice treated with DOX = experiment: In vivo cardio protection: heart function and atrophy induced by DOX in mice; details: by week four, inhibitors daily i.p., FIG. 11
Method: In vivo cardio protection in mice by the inhibitors of MST1/2 protein kinases was verified by measuring heart function and atrophy induced by DOX (FIG. 8). Two inhibitors X1 (drug 1) and Y1 (drug 2) were administered to the mice daily by i.p. during the entire study period. After administration of the inhibitors for six days, DOX was administered every two days by i.p. for four times. Blood samples were collected periodically from the mice by […]. EdU was administered to the mice during the final four days of the study (FIG. 8).
Further, the mice were disected at the death or at the end of the study and the weight of the hearts was measured.
The heart function measured as EF % (ejection fraction) was impaired by DOX over the four-week study period.

[1] = tested on: C57B1/6 mice, MCAO-induced cerebral ischemia; experiment: Mouse cerebral ischemia model by transient middle cerebral artery occlusion (MCAO); format: in vivo
Method: To verify the protective effect of the inhibitors of MST1/2 protein kinases on the brain injury after ischemic stroke, X1 was administered to mouse cerebral ischemia model induced by transient middle cerebral artery occlusion (MCAO). Briefly, 8-12 week-old C57B1/6 mice (both male and female mice) were intraperitoneal injection with vehicle (DMSO) or 2 mg/kg X1 twice at 24 hours and 3 hours prior to MCAO procedure respectively. Mice were then anesthetized with 2.0% isoflurane, with their body temperature maintained at 37° C. with a heating pad. Following a midline cervical skin incision, the proximal right common carotid artery and the right external carotid artery were ligated. […]
Real-time cerebral blood flow was monitored using a laser speckle contrast imager (PeriCam PSI HR System, Perimed, Sweden) to confirm occlusion of the MCAO and reperfusion after removal of the filament. […] Brain sections were stained with 2% 2,3,5-Triphenyltetrazolium chloride (T8877; Sigma-Aldrich, St. Louis, Mo.) and scanned (HP Scanjet G4010) to allow quantification of infarcted and uninjured brain tissue. […]
In addition, neurological function of the MCAO-induced cerebral ischemia model mice was evaluated after treatment with the MST1/2 protein kinases inhibitor X1. […]

VCAM-1 = VCAM-1 expression in stimulated HUVECs (western blot); format: cell-based, human; details: for IC50: Homo sapiens, HUVEC, read-out: IC50 of inhibition of VCAM-1 expression
ICAM-1 = ICAM-1 expression in stimulated HUVECs (western blot); format: cell-based, human; details: 1 μM, 1 hour pretreatment, TNF-α (20 ng/mL) and IL-1β (10 ng/mL) 12 hours; FIG. 15A
[2] = tested on: inflammatory cytokines in HUVEC, such as MCP-1 and IL-6; experiment: mRNA levels of inflammatory cytokines in HUVEC after TNFα stimulation (qPCR); format: cell-based, human; details: in response to TNFα stimulation, FIGS. 17A-17D, 18A-18D
[3] = tested on: THP-1 cells / TNFα-activated ECs; experiment: Adhesion of THP-1 cells to TNFα-activated endothelial cells; format: cell-based, human; details: FIGS. 19A-19B, 20A-20B
Method: To substantiate the functional significance of inhibitors of MST1/2 protein kinases in activating endothelial cells, the monocyte adhesion to the activated endothelial cells was further examined.
Cell adhesion was assessed as the follows: THP1 cells were labeled with calcein-AM (Invitrogen) according to the instructions of the manufacturer. After the HUVECs were stimulated and washed, 2.5×10^5 calcein-labeled THP1 cells were added to each well and allowed to interact with MST1/2 inhibitors for 60 minutes at […]. Unbound cells were removed by gently washing with complete medium, and the number of attached cells was counted on an inverted fluorescent microscope.

[4] = tested on: inflammatory cytokines in the mouse lung; experiment: Murine septic model (LPS): inflammatory cytokine mRNA in mouse lung (real-time PCR); format: in vivo, mice; details: LPS 2.5 mg/kg i.p.; pretreated twice at 24 hrs and 3 hrs prior; 6 hrs after LPS; FIGS. 21A-21D
Method: In this regard, the mice were pretreated with X1 twice at 24 hrs and 3 hrs, respectively, prior to the injection of lipopolysaccharides (LPS). 6 hrs after injection of LPS to induce the sepsis model, the expression of inflammatory cytokines in the mouse lung was determined by real-time PCR.

Sequence of MST1 (Q13043 whole entry, looked up): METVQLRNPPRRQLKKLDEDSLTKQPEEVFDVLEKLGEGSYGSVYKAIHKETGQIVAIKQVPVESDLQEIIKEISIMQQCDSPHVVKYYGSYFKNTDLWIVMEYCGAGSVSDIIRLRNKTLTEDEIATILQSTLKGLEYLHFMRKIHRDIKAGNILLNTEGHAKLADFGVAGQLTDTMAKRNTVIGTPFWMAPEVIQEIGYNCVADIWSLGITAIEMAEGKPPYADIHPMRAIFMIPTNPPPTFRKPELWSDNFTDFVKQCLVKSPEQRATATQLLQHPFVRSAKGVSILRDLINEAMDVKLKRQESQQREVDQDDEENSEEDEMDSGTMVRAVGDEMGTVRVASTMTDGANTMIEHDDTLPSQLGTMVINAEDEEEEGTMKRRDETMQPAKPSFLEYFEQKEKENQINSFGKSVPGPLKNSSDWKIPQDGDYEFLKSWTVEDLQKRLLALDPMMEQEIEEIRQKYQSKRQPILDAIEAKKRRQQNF

| Compound | IC50 (MST2) [µM] | IC50 (MST1) [µM] | further results |
| --- | --- | --- | --- |
| CN1c2ccccc2C(=O)Nc2cnc(Nc3ccc(NS(C)(=O)=O)cc3)nc21 [IA-6] | > 30 | > 30 | – |
| NS(=O)(=O)c1ccc(Nc2ncc3c(n2)N(C2CCCC2)c2ccccc2C(=O)N3)cc1 [IB-1] | > 30 | > 30 | – |
| CN1C(=O)c2ccccc2N(C2CCCC2)c2nc(Nc3cccc(S(N)(=O)=O)c3)ncc21 [IF-5] | > 30 | > 30 | – |
| CN1C(=O)c2ccccc2Nc2nc(Nc3cccc(S(N)(=O)=O)c3)ncc21 [IG-3] | > 30 | > 30 | – |
| Cc1ccc2c(c1)C(=O)N(C)c1cnc(Nc3ccc(S(C)(=O)=O)cc3)nc1N2C [IH-3] | > 30 | > 30 | – |
| Cc1ccc2c(c1)C(=O)N(C)c1cnc(Nc3ccc(S(N)(=O)=O)cc3)nc1N2C [IH-6] | > 30 | > 30 | – |
| [2H]c1ccc2c(c1)N(C)c1nc(Nc3ccc(S(N)(=O)=O)cc3)ncc1N(C)C2=O [IH-7] | – | 3.12 | – |
| CN1C(=O)c2ccc(Cl)cc2N(C)c2nc(Nc3ccc(S(C)(=O)=O)cc3)ncc21 [IH-14] | – | > 30 | – |
| CN1C(=O)c2sccc2N(C)c2nc(Nc3ccc([N+](=O)[O-])cc3)ncc21 [II-11] | > 30 | > 30 | – |
| COc1cc(N2CCN(C)CC2)ccc1Nc1ncc2c(n1)N(C)c1ccsc1C(=O)N2C [II-16] | > 30 | > 30 | – |
| COc1cc(N2CCC(O)CC2)ccc1Nc1ncc2c(n1)N(C)c1ccsc1C(=O)N2C [II-22] | > 30 | > 30 | – |
| CN1C(=O)c2cccc3c2N(CC3)c2nc(Nc3cccc(S(N)(=O)=O)c3)ncc21 [IV-2] | > 30 | > 30 | – |
| CN1C(=O)c2sccc2N(C)c2nc(Nc3ccc(S(N)(=O)=O)cc3)ncc21 [X1] | – | – | heart function measured as EF % (ejection fraction) (mice treated with DOX): reduced the EF % decrease; infarct size ([1]; 2 mg/kg i.p. twice, 24 hours and 3 hours prior to MCAO, 60 minutes ischemia, 23 hours reperfusion, FIGS. 13, 14A): significantly attenuated; neurological function (0-4-point neurological score) ([1]; MCAO mice, in comparison with vehicle treatment, FIG. 14B): reducing the damages to neurological functions; VCAM-1 expression (VCAM-1; 1 μM, 1 hour pretreatment, TNF-α (20 ng/mL) and IL-1β (10 ng/mL) 12 hours, FIG. 15A): substantially inhibited; IC50 (VCAM-1): 1.29 µM; expression of ICAM-1 (ICAM-1): barely affected; mRNA levels of inflammatory cytokines in HUVEC, such as MCP-1 and IL-6 [2]: markedly inhibited; adhesion of THP-1 cells to TNFα-activated ECs [3]: markedly inhibited; mRNA level of ICAM-1 in mouse lung [4]: markedly suppressed; mRNA level of IL-6 in mouse lung [4]: markedly suppressed; mRNA level of MCP-1 in mouse lung [4]: markedly suppressed; mRNA level of VCAM-1 in mouse lung [4]: markedly suppressed |
| CN1C(=O)c2ccccc2N(C)c2nc(Nc3ccc(S(N)(=O)=O)cc3)ncc21 [Y1] | – | – | heart function measured as EF % (ejection fraction) (mice treated with DOX): reduced the EF % decrease; IC50 (VCAM-1; HUVECs, FIGS. 15B, 16A-16B): 0.49 µM; mRNA levels of inflammatory cytokines in HUVEC, such as MCP-1 and IL-6 [2]: markedly inhibited; adhesion of THP-1 cells to TNFα-activated ECs [3]: markedly inhibited |

Now from value to molecule, other results behind:

| IC50 (MST2) [µM] | Compound | IC50 (MST1) [µM] | further results |
| --- | --- | --- | --- |
| > 30 | CN1C(=O)c2ccccc2N(C)c2nc(Nc3cccc(S(N)(=O)=O)c3)ncc21 [IC-4] | > 30 | – |
| 1.8 | CCN1CCN(Cc2ccc(Nc3ncc4c(n3)N(C)c3ccccc3C(=O)N4C)cc2C(F)(F)F)CC1 [IC-5] | – | IC50 (MST1; read-out: MST1 IC50): 1.91 µM |
| 0.11 | CCN1c2ccccc2C(=O)N(C)c2cnc(Nc3ccc(S(N)(=O)=O)cc3)nc21 [ID-1] | – | IC50 (MST1; read-out: MST1 IC50): 0.04 µM |
| > 30 | CCN1c2ccccc2C(=O)N(C)c2cnc(Nc3cccc(S(N)(=O)=O)c3)nc21 [ID-3] | – | – |
| 2.45 | CC(C)N1c2ccccc2C(=O)N(C)c2cnc(Nc3ccc(S(N)(=O)=O)cc3)nc21 [IE-1] | – | IC50 (MST1; read-out: MST1 IC50): 0.83 µM |
| > 30 | CC(C)N1c2ccccc2C(=O)N(C)c2cnc(Nc3cccc(S(N)(=O)=O)c3)nc21 [IE-2] | – | – |
| > 30 | CN1CCN(S(=O)(=O)c2ccc(Nc3ncc4c(n3)N(C3CCCC3)c3ccccc3C(=O)N4C)cc2)CC1 [IF-4] | – | – |
| > 30 | CCN1CCN(Cc2ccc(Nc3ncc4c(n3)N(C3CCCC3)c3ccccc3C(=O)N4C)cc2C(F)(F)F)CC1 [IF-6] | – | – |
| > 30 | CN1C(=O)c2cc(Cl)ccc2N(C)c2nc(Nc3ccc(S(N)(=O)=O)cc3)ncc21 [IH-10] | – | – |
| > 30 | CN1C(=O)c2sccc2N(C)c2nc(Nc3cccc(S(N)(=O)=O)c3)ncc21 [II-2] | – | – |
| 2.75 | CN1C(=O)c2sccc2N(C)c2nc(Nc3ccc(N)cc3)ncc21 [II-14] | – | IC50 (MST1; read-out: MST1 IC50): 2.16 µM |
| > 30 | CN1C(=O)c2sccc2N(C)c2nc(Nc3cc[nH]n3)ncc21 [II-27] | – | – |
